Measured values: patent US12239648B2, “KIF5B-RET fusion molecules and uses thereof” (Foundation Medicine, Inc., priority 2011, dated 2025)

How the values were obtained:
[1] = tested on: KIF5B-RET Ba/F3 cells; test: Effects of drugs on Ba/F3 cells transfected with KIF5B-RET fusion constructs (IL-3 independent growth); type: cell-based; conditions: Ba/F3 cells expressing KIF5B-RET, FIG. 8
Source text: FIG. 8 is a graph showing the effects of different drugs on Ba/F3 cells transfected with KIF5B-RET fusion constructs.

[2] = tested on: Thyroid cancers and cell lines harboring PTC-RET translocations; conditions: PTC/RET translocations overexpressing the RET kinase domain; Henderson 2008, Carlomagno 2006; cited from earlier work

Question: What does the source list for CNC(=O)c1cc(Oc2ccc(NC(=O)Nc3ccc(Cl)c(C(F)(F)F)c3)cc2)ccn1 [sorafenib]?
Answer: sensitivity of KIF5B-RET transformed Ba/F3 cells to drug [1]: sensitive; sensitivity of thyroid cancer and cell lines harboring PTC/RET translocations [2]: sensitive
